Test results reported in patent US11246873B2, “Directed differentiation of oligodendrocyte precursor cells to a myelinating cell fate” (The Scripps Research Institute, priority 2011, dated 2022).
Entries after “also recorded” stand apart in the source; their conditions may differ. Read-outs that look alike come from different tables or passages of the source.

Key:
[1] = tested on: OPCs; experiment: Immunofluorescence analysis of mature oligodendrocyte markers (MBP, MOG, CNP, GalC, O1, O4); type: cell-based, rat; details: OPCs treated 6 days
From the text: FIG. 3. Immunofluorescence analysis of compound treated OPCs using mature oligodendrocyte specific markers. Immunofluorescence staining using specific antibodies for MBP, MOG, and 2′,3′-cyclic nucleotide 3′ phosphodiesterase (CNP). Nuclei were identified using DAPI.
FIG. 4. Immunofluorescence analysis of compound treated OPCs using mature oligodendrocyte specific markers. Immunofluorescence staining using specific antibodies for galactocereberoside (GalC), oligodendrocyte marker O1 (O1) and oligodendrocyte marker O4 (O4). Nuclei were identified using DAPI.
FIG. 14. Compound treatment induces the differentiation of OPCs to mature oligodendrocytes. […] Cells were fixed and immunostained for MBP, MOG, CNP, GalC, O1, or O4.
Immunofluorescence was also used to confirm that the hits were able to induce oligodendrocyte maturation.

[2] = tested on: OPCs; experiment: qRT-PCR of MBP and MOG expression in compound treated OPCs; type: cell-based, rat; details: EC90 concentrations, 6 days
From the text: FIG. 2A-C. […] (A) Western blot analysis of OPCs treated with compounds at EC90 concentrations for 6 days. Total protein was isolated from cell pellets and probed for myelin basic protein (MBP) and myelin oligodendrocyte glycoprotein (MOG) using specific antibodies. (B-C) Quantitative RT-PCR (qRT-PCR) analysis of OPCs treated with compounds at EC90 concentrations for 6 days. Total RNA was isolated from cell pellets and reverse transcribed. MBP and MOG expression was quantified using specific probes and Taqman-based qRT-PCR. Expression was normalized to the internal controls β-actin and GAPDH. Fold change in gene expression over DMSO treated control cells is plotted for MBP (B) and MOG (C).

[3] = tested on: muscarinic receptor; experiment: Carbachol co-treatment in compound induced OPC differentiation (MBP staining); type: cell-based, rat; details: compounds at EC90 (benztropine 2.3 uM), serial dilutions of carbachol, 6 days
Method: Following 6 days of treatment, cells were fixed and stained for MBP. Plates were imaged using the OPERA high content screening system and MBP staining was quantified as described. […] OPCs were plated in 384-well plates at 5000 cells per well in media containing basal PDGF-αα. Cells were equilibrated with Ca^2+ sensitive Fluo-3AM® dye in HBSS for 30 min. […] Ca^2+ influx was immediately measured using the FLIPR TETRA® system.
OPCs express mAChRs, predominantly subtypes M1, M3, and M5 (F. Ragheb et al., J Neurochem, 77, 1396 (2001)). […] Activation of M1 and M3 mAChRs is coupled to downstream signal transduction events through phospholipase C, which results in increased intracellular calcium concentrations (F. Ragheb et al., J Neurochem, 77, 1396 (2001)) (FIG. 23C). M2 and M4 mAChR activation inhibits adenylatecyclase, leading to decreased intracellular cAMP levels (C. C. Felder, FASEB J, 9, 619 (1995); M. Lopez-Ilasaca et al., Science, 275, 394 (1997)). […] Acetylcholine is a known regulator of OPC proliferation and, as such, muscarinic receptor subtypes represent a reasonable class of therapeutic targets for the modulation of OPC proliferation and differentiation (F. De Angelis et al., Dev Neurobiol, (2011)).

[4] = tested on: PLP induced EAE mice; details: for clinical severity versus vehicle, prophylactic mode: 10 mg/kg i.p. daily from the day of PLP injection; for dose dependence of clinical EAE scores: various doses i.p. (FTY720 1, 0.1, 0.01 mg/kg; interferon-β 10,000, 3000, 1000 U per mouse)
Method: (A-E) SJL mice were immunized with proteolipid peptide (PLP) and pertussis toxin and monitored daily with scoring on the standard clinical EAE scale (0-5). Compounds were administered daily for the duration of the study in saline at 10 mg/kg via intra-peritoneal injection (0.1 ml), starting on the day of the appearance of clinical EAE symptoms (day 10). […] Mean clinical EAE score and standard error of mean (SEM) are shown for each study group.
FIG. 25. […] EAE was induced in mice using PLP and pertussis toxin. […] Prophylactic dosing is defined as administration of compound commenced on the day of PLP injection. Error bars indicate standard deviation of the mean within each group of 8 mice.
(A-F) EAE was induced in mice using PLP and pertussis toxin. […] Error bars indicate standard deviation of the mean within each group of 8 mice.
(A-F) EAE was induced in mice by injecting PLP in complete Freund's adjuvant (CFA) and pertussis toxin, and the animals were scored daily for clinical severity of disease on a scale of 0-5. […] Error bars indicate standard deviation of the mean within each group of 8-10 mice.
10 week old SJL mice were immunized with PLP emulsion and pertusis toxin to induce EAE. […] Compounds were administered daily via intraperitoneal injection of 100 ul in sterile saline at 10 mg/kg alone or in combination with mycophenolate motefil in sterile saline at pH 5 at 20 mg/kg. Compound administration was initiated at disease onset (day 10) while mycophenolate motefil administration was initiated on Day 14. The mice were scored daily on a standard EAE scale of 0-5.
This model is most commonly used to evaluate the potential efficacy of immunomodulatory agents, but can also be used to determine the effectiveness of promyelinating agents that function by enhancing OPC differentiation (M. Fernandez et al., Proc Natl Acad Sci U.S.A, 101, 16363 (2004); X. Lee et al., J Neurosci, 27, 220 (2007); reviewed in R. J. Franklin, C. Ffrench-Constant, Nat Rev Neurosci, 9, 839 (2008)). […] We next evaluated efficacy when the drug is dosed therapeutically, by starting daily injections at the first sign of disease onset.
For the treatment of MS, an OPC differentiation inducing drug would most likely be introduced clinically as part of a combination therapy with an immunosuppressive drug. […] The former reduces T-cell proliferation and alters cytokine expression (A. Noronha, A. Toscas, M. A. Jensen, J Neuroimmunol, 46, 145 (1993); A. Noronha, A. Toscas, M. A. Jensen, Ann Neurol, 27, 207 (1990)), while the latter is an S1P agonist that regulates T-cell trafficking (V. Brinkmann et al., J Biol Chem, 277, 21453 (2002); V. Brinkmann et al., Nat Rev Drug Discov, 9, 883 (2010)).

Compound | markers of mature myelinating oligodendrocytes (MBP, MOG, CNP, GalC, O1, O4) by immunofluorescence [1] | induction of MBP expression (qRT-PCR) over DMSO [2] | induction of MOG expression (qRT-PCR) over DMSO [2] | effect of carbachol on compound induced OPC differentiation [3] | effect of carbachol on compound induced OPC differentiation ([3]; listed as benzatropine) | effect on clinical severity scores at 0.1 mg/kg ([4]; 0.1 mg/kg) | clinical severity versus vehicle, prophylactic mode [4] | clinical severity versus vehicle, prophylactic mode ([4]; listed as Benztropine) | mean maximal clinical EAE score in relapse, day 25 ([4]; SJL mice, scale 0-5, compounds 10 mg/kg i.p. daily from day 10, mycophenolate mofetil 20 mg/kg from day 14, mean ± SEM) | most effective dose in decreasing clinical severity scores ([4]; dose response in EAE model) [mg/kg] | general toxicity ([4]; mouse, in vivo, 10 mg/kg) | dose dependence of clinical EAE scores [4] | dose dependence of clinical EAE scores ([4]; listed as Benztropine) | recovery time following the acute phase ([4]; 10 mg/kg i.p. daily from day 10) | mean maximal clinical EAE score in relapse, day 26 ([4]; SJL mice, scale 0-5, 10 mg/kg i.p. daily from day 10, mean ± SEM)
CN1[C@@H]2CC[C@H]1C[C@@H](OC(c1ccccc1)c1ccccc1)C2 [benztropine] | confirmed the presence of multiple markers of mature myelinating oligodendrocytes; also recorded: expression of mature oligodendrocyte markers | two-fold | two-fold | inhibited; also recorded: Potent inhibition; also recorded: antagonizes | dose dependent inhibition | no effect | significantly decreased clinical severity in both acute and relapse phase | dramatically decreased the severity of the acute phase of disease and virtually eliminated the observation of a relapse phase; also recorded: decreased the clinical severity of disease | 0.2±0.2 | 12.5 | general toxicity was not observed | Dose dependent activity | dose dependent efficacy |  | 
CN1CCN(CCCN2c3ccccc3Sc3ccc(C(F)(F)F)cc32)CC1 [trifluoperazine] | confirmed the presence of multiple markers of mature myelinating oligodendrocytes | two-fold | two-fold | did not inhibit; also recorded: no effect |  |  |  |  |  |  |  |  |  | modest decrease | 0.4±0.4
